Literature values as cited in patent publication US11369498B2, “Stent and stent delivery system with improved deliverability” (MT Acquisition Holdings LLC, priority 2010, dated 2022).

Conditions: 25 C.

Q: With [Cl-].[Na+] [NaCl] as the molecule, how does the Water sol read?
A: 35.7 g/100 g
